The values below come from patent US12281308B2, “Inhibition of protein kinases to treat Friedreich ataxia” (University of Massachusetts, priority 2018, dated 2025).

Data set [1] has as its system mutant FXN gene. Description: Massively parallel short-read sequencing (RNA-seq) of FXN transcript levels in FRDA neurons. Type of data set: cell-based, human. Particulars: vs DMSO, Illumina platform.
Data set [2] has as its system ACO2 and ISCU. Description: Immunoblot analysis of mitochondrial Fe-S proteins in FRDA neurons. The class given is cell-based, human. The following applies: fasudil 1 μM, KD025 1 μM, ripasudil 0.5 μM.
The subject of data set [3] is ACO2 and ISCU. Description: Immunoblot analysis of mitochondrial Fe-S proteins in FRDA cardiomyocytes. Type of data set: cell-based, human. Particulars: fasudil 1 μM, KD025 1 μM, ripasudil 0.5 μM.
In data set [4] the test system is FRDA neurons. Description: Mitochondrial oxygen consumption rate (Agilent Seahorse XF Analyzer) in FRDA neurons. Type of data set: cell-based, human. Particulars: small molecule ROCK1/2 inhibitor. The source says: (§1) FIGS. 3A-D. Inhibition of protein kinase FXN-RFs can ameliorate characteristic mitochondrial defects of FRDA post-mitotic neurons and cardiomyocytes. (A, B) Quantification of flow cytometry analysis of normal and FRDA neurons (A) or normal and FRDA CMCs (B) expressing an FXN-RF shRNA and stained with MitoSOX. (C, D) Analysis of the mitochondrial oxygen consumption rate in normal and FRDA neurons (C) or normal and FRDA CMCs (D) expressing an FXN-RF shRNA. […] (C, D) Analysis of the mitochondrial oxygen consumption rate in FRDA neurons (C) or FRDA CMCs (D) treated with a small molecule ROCK1/2 inhibitor. (E, F) Immunoblot analysis showing levels of mitochondrial proteins ACO and ISCU in FRDA neurons (E) or FRDA CMCs (F) treated with fasudil (1 μM), KD025 (1 μM), or ripasudil (0.5 μM). […] We next asked whether FXN-RF inhibition could ameliorate two characteristic mitochondrial defects of FRDA neurons and cardiomyocytes: increased levels of reactive oxygen species (ROS) and decreased oxygen consumption. In the first set of experiments, FRDA neurons and cardiomyocytes expressing a protein kinase FXN-RF shRNA were stained with MitoSOX (an indicator of mitochondrial superoxide levels and mitochondrial ROS production) followed by flow cytometry analysis. As expected. FRDA neurons and cardiomyocytes had increased levels of mitochondrial ROS production compared to normal neurons and cardiomyocytes (FIGS. 3A, B). […] In the second set of experiments, we measured mitochondrial oxygen consumption rate, which is related to ATP production, using an Agilent Seahorse XF Analyzer. As expected, mitochondrial oxygen consumption rate in FRDA neurons and cardiomyocytes was ˜60% of the level observed in normal neurons and cardiomyocytes (FIGS. 3C, D).

In data set [5] the test system is FRDA cardiomyocytes. Description: Mitochondrial oxygen consumption rate (Agilent Seahorse XF Analyzer) in FRDA cardiomyocytes. Type of data set: cell-based, human. Particulars: small molecule ROCK1/2 inhibitor.
Excerpt: as §1

Data set [6] deals with ROCK1/2. The following applies: literature; cited from earlier work.
The test system of data set [7] is ROCK1. Description: qRT-PCR analysis monitoring ROCK1 expression (shRNA knockdown) in FRDA (GM23404) iPSCs. The class given is cell-based, human. Particulars: FRDA (GM23404) iPSCs expressing the shRNA. The text has this:
(§2) FIGS. 4A-E. Identification of ROCK2 as a protein kinase that mediates repression of the mutant FXN gene. (A) qRT-PCR analysis monitoring ROCK1 and ROCK2 expression in FRDA (GM23404) iPSCs expressing the two ROCK1 shRNAs used in the experiments shown in FIGS. 1-3 (hereafter called ROCK1-1 and ROCK1-2). […] (B) qRT-PCR analysis monitoring knockdown efficiencies of selective ROCK1 (ROCK1-3) and ROCK2 shRNAs.
(§3) Of the 8 new FXN-RFs that we identified, we are particularly enthusiastic about ROCK1, a serine-threonine kinase and major effector of the small GTPase RhoA (Schofield and Bernard, Crit Rev Biochem Mol Biol, 2013, 48 (4): 301-316. ROCK1 phosphory lates a variety of substrates, some of which can affect cell signaling pathways, such as PI3K/AKT (Ruth et al., J Invest Dermatol, 2006, 126 (4): 862-868), and transcription factors, such as NF-kB (Shimizu et al., Mol Hum Reprod, 2007, 13 (3): 181-187) and Runx2 (Huang et al., Exp Ther Med, 2018, 15 (5): 4457-4464). In addition to ROCK1, mammalian cells express another ROCK isoform encoded by a distinct gene, ROCK2. […] ROCK1 and ROCK2 share ˜65% overall amino acid identity and 92% identity in their kinase domains, with 100% identity within their ATP-binding pockets (Nakagawa et al., FEBS Lett, 1996, 392 (2): 189-193; Takahashi et al., Genomics, 1999, 55 (2): 235-237). […] Thus, both ROCK1 and ROCK2 are protein kinase FXN-RFs.

For data set [8], the system named is ROCK2. Put plainly: qRT-PCR analysis monitoring ROCK2 expression (shRNA knockdown) in FRDA (GM23404) iPSCs. The following applies: FRDA (GM23404) iPSCs expressing the shRNA. Type of data set: cell-based, human.
Excerpt: as §2, §3

Regarding `CC(C)NC(=O)COc1cccc(-c2nc(Nc3ccc4[nH]ncc4c3)c3ccccc3n2)c1` [KD025], in data set [1], the “FXN transcript levels (RNA-seq)” value is given as “Upregulation of the mutant FXN gene”. For the same molecule, in data set [2], the “levels of ACO2” value is “increased levels of ACO2 and ISCU comparable to that observed in normal neurons and cardiomyocytes”; the “levels of ISCU” value is “increased levels of ACO2 and ISCU comparable to that observed in normal neurons and cardiomyocytes”. Further, in data set [3], the “levels of ACO2” value was “increased levels of ACO2 and ISCU comparable to that observed in normal neurons and cardiomyocytes”; the “levels of ISCU” value is “increased levels of ACO2 and ISCU comparable to that observed in normal neurons and cardiomyocytes”.
Consider `C[C@@H](N)[C@H]1CC[C@H](C(=O)Nc2ccncc2)CC1.Cl.Cl` [Y27632, (+)-(R)-trans-4-(1-aminoethyl)-N-(4-pyridyl)cyclohexanecarboxamide dihydrochloride], for which the “mitochondrial oxygen consumption rate” value in data set [4] and in data set [5] was “increased mitochondrial oxygen consumption rate” in each case.
In the case of `O=S(=O)(c1cccc2cnccc12)N1CCCNCC1` [fasudil, 1-(5-isoquinolinesulfonyl)-homopiperazine], in data set [1], the “FXN transcript levels (RNA-seq)” value is “Upregulation of the mutant FXN gene”. In addition, the “mitochondrial oxygen consumption rate” value in data set [4] and in data set [5] was “increased mitochondrial oxygen consumption rate” each time. Besides, the “levels of ACO2” value in data set [2] is “increased levels of ACO2 and ISCU comparable to that observed in normal neurons and cardiomyocytes”; in data set [3] it was “increased levels of ACO2 and ISCU comparable to that observed in normal neurons and cardiomyocytes”. Moreover, the “levels of ISCU” value in data set [2] is “increased levels of ACO2 and ISCU comparable to that observed in normal neurons and cardiomyocytes”; in data set [3], “increased levels of ACO2 and ISCU comparable to that observed in normal neurons and cardiomyocytes”. For the same molecule, in data set [6], the oral activity result is given as “orally active”. Moreover, the “tolerability / adverse effects” value in data set [6] is on record as “well tolerated without adverse effects”.
Consider `C[C@H]1CNCCCN1S(=O)(=O)c1cccc2cncc(F)c12` [ripasudil, 4-fluoro-5-[[(2S)-2-methyl-1,4-diazepan-1-yl]sulfonyl]isoquinoline], for which the “mitochondrial oxygen consumption rate” value in data set [4] and in data set [5] was “increased mitochondrial oxygen consumption rate” in each case. Besides, the “levels of ACO2” value is “increased levels of ACO2 and ISCU comparable to that observed in normal neurons and cardiomyocytes” in data set [2]; “increased levels of ACO2 and ISCU comparable to that observed in normal neurons and cardiomyocytes” in data set [3]. The “levels of ISCU” value in data set [2] is “increased levels of ACO2 and ISCU comparable to that observed in normal neurons and cardiomyocytes”; in data set [3], “increased levels of ACO2 and ISCU comparable to that observed in normal neurons and cardiomyocytes”. Besides, the oral activity result in data set [6] was “orally active”. Besides, the “tolerability / adverse effects” value in data set [6] is “well tolerated without adverse effects”.
In the case of “ROCK1-1: ROCK1 shRNA (1), SEQ ID NO: 11; knocks down both ROCK1 and ROCK2 (CCGGCGGGTTGTTCAGATTGAGAAACTCGAGTTTCTCAATCTGAACAACCCGTTTTTG)”, the “ROCK1 expression (knockdown)” value in data set [7] is “knocked down both ROCK1 and ROCK2”. In addition, in data set [8], the “ROCK2 expression (knockdown)” value is “knocked down both ROCK1 and ROCK2”.
For the molecule “ROCK1-2: ROCK1 shRNA (2), SEQ ID NO: 12; knocks down both ROCK1 and ROCK2 (CCGGGCATTCCAAGATGATCGTTATCTCGAGATAACGATCATCTTGGAATGCTTTTTG)”, in data set [7], the “ROCK1 expression (knockdown)” value was “knocked down both ROCK1 and ROCK2”. Further, in data set [8], the “ROCK2 expression (knockdown)” value was “knocked down both ROCK1 and ROCK2”.
On to “ROCK1-3: selective ROCK1 shRNA (3), SEQ ID NO: 13 (CCGGGCACCAGTTGTACCCGATTTACTCGAGTAAATCGGGTACAACTGGTGCTTTTTG)”, for which the “ROCK1 expression (knockdown)” value in data set [7] is given as “knocked down ROCK1”. In data set [8], the “ROCK2 expression (knockdown)” value is on record as “knocked down ROCK1 but not ROCK2”.
In the case of “ROCK2 shRNA: selective ROCK2 shRNA, SEQ ID NO: 14 (CCGGGCACCAGTTGTACCCGATTTACTCGAGTAAATCGGGTACAACTGGTGCTTTTTG)”, the “ROCK1 expression (knockdown)” value in data set [7] is listed as “knocked down ROCK2 but not ROCK1”. Moreover, the “ROCK2 expression (knockdown)” value in data set [8] is recorded as “knocked down ROCK2”.
